{"source": "patent US7456204B2", "about": "“Cyclohexylglycine derivatives as dipeptidyl peptidase inhibitors for the treatment or prevention of diabetes” (Merck & Co., Inc., priority 2003, dated 2008)", "origin": "cited, not measured here", "key": {"[1]": {"system": "cardiac allograft survival", "settings": "rats; from day 7 to day 14"}, "hematopoiesis": {"system": "hematopoiesis", "settings": "mouse, cyclophosphamide-induced neutropenia"}, "DP-IV": {"molecular_target": "T1, DP-IV (Homo sapiens, UniProt P27487)", "T1 construct": "GRF is rapidly degraded in plasma to GRF[3-44]", "T1 sequence (P27487 39-766 limits assumed)": "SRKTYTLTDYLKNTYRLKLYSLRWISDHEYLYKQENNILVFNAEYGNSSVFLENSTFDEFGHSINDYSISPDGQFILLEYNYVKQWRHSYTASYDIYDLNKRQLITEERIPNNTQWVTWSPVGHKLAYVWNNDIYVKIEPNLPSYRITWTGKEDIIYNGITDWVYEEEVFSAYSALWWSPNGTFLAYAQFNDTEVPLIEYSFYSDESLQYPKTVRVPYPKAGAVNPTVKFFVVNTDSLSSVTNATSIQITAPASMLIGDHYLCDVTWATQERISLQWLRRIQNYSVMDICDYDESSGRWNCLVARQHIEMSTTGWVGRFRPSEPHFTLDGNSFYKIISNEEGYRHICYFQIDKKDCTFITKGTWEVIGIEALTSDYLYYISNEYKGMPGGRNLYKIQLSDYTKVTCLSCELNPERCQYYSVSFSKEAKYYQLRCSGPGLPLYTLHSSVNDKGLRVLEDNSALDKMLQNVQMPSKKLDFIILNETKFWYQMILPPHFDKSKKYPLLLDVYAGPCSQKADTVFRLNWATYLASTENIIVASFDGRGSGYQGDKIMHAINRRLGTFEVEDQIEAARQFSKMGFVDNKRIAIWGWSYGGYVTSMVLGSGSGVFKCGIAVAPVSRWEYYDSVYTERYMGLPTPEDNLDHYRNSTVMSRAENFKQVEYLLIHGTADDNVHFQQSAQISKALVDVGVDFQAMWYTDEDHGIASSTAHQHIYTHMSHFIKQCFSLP"}}}
{"smiles": "CC(C)N1CCC(c2ccccc2)(c2ccccc2)CC1", "note": "[Prodipine, Pro-Pro-diphenyl-phosphonate]", "values": [{"measurement": "cardiac allograft survival", "setting": "[1]", "result": "double cardiac allograft survival"}]}
{"smiles": "CC(C)[C@H](N)C(=O)N1CCC[C@H]1B(O)O", "note": "[Val-Boro-Pro]", "values": [{"measurement": "hematopoiesis", "setting": "hematopoiesis", "result": "stimulated hematopoiesis"}]}
{"smiles": "CC[C@H](C)[C@H](N)C(=O)N1CCC[C@H]1C(=O)N[C@H](C(=O)O)[C@@H](C)CC", "note": "[diprotin A]", "values": [{"measurement": "degradation of GRF in plasma to GRF[3-44]", "setting": "DP-IV", "result": "prevented"}]}
